Experimental data as given in patent US10905651B1, “Zeinmersome nanocarriers for drug delivery to the liver” (King Abdulaziz University, priority 2020, dated 2021).

Tests used:
[1] = tested on: methotrexate-induced intestinal mucositis; conditions: pretreatment with 0.5, 1.0, or 5.0 mg/kg; cited from earlier work
[2] = tested on: TAA-induced hepatic fibrosis rats; test: Histopathology of duodenal sections and detection of sprue-like enteropathy in TAA-induced hepatic fibrosis rats; assay type: in vivo, rat; conditions: two months
Description: (§1) Rats were given freshly prepared TAA (0.9% w/v in saline solution, 200 mg/kg, ip) twice weekly for eight weeks. A normal control (NC) group of rats (n=8) received injections of the vehicle twice weekly for eight weeks. The TAA-treated rats were randomly assigned to groups (n=8), including a test group for each dosage of a free drug (not encapsulated in ZMS), each dosage of zeinmersomes encapsulating the drug, and a positive control group (PC) having hepatic fibrosis but receiving a vehicle-only treatment instead of a drug treatment. Five groups of rats (n=8) were given freshly prepared TAA (0.9% w/v in saline solution, 200 mg/kg, ip) twice weekly for eight weeks and a normal control (NC) group received vehicle injections, as described in Example 4. The five TAA groups included a positive control group (PC, untreated) and four groups treated with low and high doses (2 and 4 mg/kg/day) of OM as raw drug (OL & OH, respectively) and the same low and high doses (2 and 4 mg/kg/day) of OM formulated as zeinmersomes (OLZMS & OHZMS, respectively). […] The plasma levels of ALT and AST and the homogenate levels of IL-6, reduced glutathione (GSH), TNF-α, malondialdehyde (MDA), and protein content were measured using ELISA kits (MyBioSource, Inc. CA, USA). In addition, the concentrations of olmesartan in plasma and liver homogenate were measured by HPLC/MS. […]

[3] = tested on: TAA-induced hepatic fibrosis rats; test: Histopathology of hepatic sections in TAA-induced hepatic fibrosis rats; assay type: in vivo, rat; conditions: two months, H&E
Description: as §1

AT1 receptor = target: T1, AT1 receptor (Homo sapiens, UniProt P30556); conditions: cited from earlier work
T1 sequence (P30556 1-359): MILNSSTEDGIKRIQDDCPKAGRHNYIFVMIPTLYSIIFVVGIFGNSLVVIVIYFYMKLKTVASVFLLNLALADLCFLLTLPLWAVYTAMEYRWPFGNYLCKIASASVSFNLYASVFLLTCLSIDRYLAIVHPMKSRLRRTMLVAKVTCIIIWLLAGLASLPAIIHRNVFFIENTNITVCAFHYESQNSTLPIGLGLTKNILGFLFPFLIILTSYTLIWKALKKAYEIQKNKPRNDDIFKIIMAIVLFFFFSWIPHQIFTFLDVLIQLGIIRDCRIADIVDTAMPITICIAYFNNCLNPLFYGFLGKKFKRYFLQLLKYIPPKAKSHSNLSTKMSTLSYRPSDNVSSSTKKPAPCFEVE

[4] = tested on: bile duct-ligated fibrotic rats; conditions: 1 mg/kg/day orally; cited from earlier work
[5] = cited from earlier work
fructose-fed rats = conditions: 0.1 mg/kg/day; cited from earlier work

Question: What does the source list for CCCc1nc(C(C)(C)O)c(C(=O)OCc2oc(=O)oc2C)n1Cc1ccc(-c2ccccc2-c2nnn[nH]2)cc1 [OM, (5-methyl-2-oxo-1,3-dioxol-4-yl)methyl 5-(2-hydroxypropan-2-yl)-2-propyl-3-[[4-[2-(2H-tetrazol-5-yl)phenyl]phenyl]methyl]imidazole-4-carboxylate]?
Answer: enteropathy (diarrhea, weight loss, decreased sucrose activity) [1]: caused enteropathy; inflammatory infiltration, vascular congestion, ulcerations, hemorrhagic areas; myeloperoxidase, IL-1β and TNF-α levels [1]: decreased; duodenal histopathology (TAA-induced duodenal changes) ([2]; high dose 4 mg/kg/day oral): mild improvement; duodenal histopathology (TAA-induced duodenal changes) ([2]; low dose 2 mg/kg/day oral): swollen distorted villi with damaged desquamated surface epithelium; liver histopathology (fibrosis, inflammatory infiltration, hepatocytic degeneration) ([3]; high dose 4 mg/kg/day oral): mild improvement; liver histopathology (fibrosis, inflammatory infiltration, hepatocytic degeneration) ([3]; low dose 2 mg/kg/day oral): no improvement; AT1 receptor blockade (AT1 receptor): competitive and selective AT1 receptor blocker; liver hydroxyproline content, mRNA expression of collagen, α-smooth muscle actin, and plasma levels of TGF-β [4]: significantly reduced; drug accumulation ([5]; OM once daily for 10 days): did not result in drug accumulation; dose at which safe and well tolerated ([5]; Schwocho et al. 2001): up to 160 mg/day; time for plasma olmesartan to approach steady state ([5]; treatment with OM): 5 days; TNF-α level (fructose-fed rats): reduced; cAMP level in the soleus muscle (fructose-fed rats): increased
